The target in one assay is human Src kinase (Homo sapiens, UniProt P12931). Nature of the assay: Src Inhibition Assay: Spectrophotometric Assay. In kind it is biochemical. The following applies: 25 nM Src, 100 μM ATP, 30° C., coupled NADH spectrophotometric assay; read-out: Ki (inhibit Src). On the procedure: The compounds are evaluated as inhibitors of human Src kinase using a spectrophotometric assay.
Src Inhibition Assay: Spectrophotometric Assay
An assay buffer solution was prepared which consisted of 25 mM HEPES (pH 7.5), 10 mM MgCl2, 250 μM NADH, 3 mM phosphoenolpyruvate, 60 μg/mL pyruvate kinase, 21 μg/mL lactate dehydrogenase, 113 μM ATP and 28 nM Src. To 60 μL of this solution, in a 96 well plate, was added 2 μL of test compound stock solution in DMSO and the mixture allowed to equilibrate for 10 mins at 30° C. The enzyme reaction was initiated by the addition of 5 μL 10 mg/mL poly Glu, Tyr (4:1) prepared in 25 mM HEPES (pH 7.5). Final assay concentrations of Src and ATP were 25 nM and 100 μM respectively. Initial rate data was determined from the rate of change of absorbance at 340 nm (corresponding to stoichiometric consumption of NADH) using a Molecular Devices Spectramax plate reader (Sunnyvale, Calif.) over 10 mins at 30° C. For each Ki determination 8 data points covering the test compound concentration range of 0-7.5 μM were obtained in duplicate. Ki values were calculated from initial rate data by non-linear regression using the Prism software package (Prism 4.0a, Graphpad Software, San Diego, Calif.).

The next assay deals with human Lck kinase (Homo sapiens, UniProt P06239). Nature of the assay: Lck Inhibition Assay: Spectrophotometric Assay. In kind it is biochemical. To be noted: 60 nM Lck, 500 μM ATP, 30° C., coupled NADH spectrophotometric assay; read-out: Ki (inhibit Lck). The procedure:
The compounds are evaluated as inhibitors of human Lck kinase using a spectrophotometric assay.
Lck Inhibition Assay: Spectrophotometric Assay
An assay buffer solution was prepared which consisted of 25 mM HEPES (pH 7.5), 10 mM MgCl2, 250 μM NADH, 3 mM phosphoenolpyruvate, 43 μg/mL pyruvate kinase, 14 μg/mL lactate dehydrogenase, 560 μM ATP and 67 nM Lck. To 60 μL of this solution, in a 96 well plate, was added 2 μL of test compound stock solution in DMSO and the mixture allowed to equilibrate for 10 minutes at 30° C. The enzyme reaction was initiated by the addition of 5 μL 15 mg/mL poly Glu, Tyr (4:1) prepared in 25 mM HEPES (pH 7.5). Final assay concentrations of Lck and ATP are 60 nM and 500 μM respectively. Initial rate data was determined from the rate of change of absorbance at 340 nm (corresponding to stoichiometric consumption of NADH) using a Molecular Devices Spectramax plate reader (Sunnyvale, Calif.) over 10 min at 30° C. For each Ki determination 8 data points covering the test compound compound concentration range of 0-7.5 μM are obtained in duplicate. Ki values are calculated from initial rate data by non-linear regression using the Prism software package (Prism 4.0a, Graphpad Software, San Diego, Calif.).

Data on one compound can be found in patent publication US7659283B2, “Pyrrolo [3,2-C] pyridines useful as inhibitors of protein kinases” (Vertex Pharmaceuticals Incorporated, priority 2006, dated 2010).

The structures appear in SMILES notation.

Sequence of human Src kinase (P12931 whole entry): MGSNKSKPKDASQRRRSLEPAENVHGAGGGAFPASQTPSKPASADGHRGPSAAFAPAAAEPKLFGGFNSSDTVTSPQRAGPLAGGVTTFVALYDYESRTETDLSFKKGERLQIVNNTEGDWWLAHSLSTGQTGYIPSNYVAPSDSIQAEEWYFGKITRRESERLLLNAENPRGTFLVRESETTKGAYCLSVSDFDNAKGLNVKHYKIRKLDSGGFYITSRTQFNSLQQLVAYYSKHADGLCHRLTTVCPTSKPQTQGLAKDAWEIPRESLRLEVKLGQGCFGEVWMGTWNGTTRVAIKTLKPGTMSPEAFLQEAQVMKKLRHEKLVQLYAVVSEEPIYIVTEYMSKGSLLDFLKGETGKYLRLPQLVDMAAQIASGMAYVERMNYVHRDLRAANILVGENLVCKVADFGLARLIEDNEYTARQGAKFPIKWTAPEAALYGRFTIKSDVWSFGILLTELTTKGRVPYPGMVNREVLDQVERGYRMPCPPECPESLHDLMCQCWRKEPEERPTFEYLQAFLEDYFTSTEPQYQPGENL
Sequence of human Lck kinase (P06239 whole entry): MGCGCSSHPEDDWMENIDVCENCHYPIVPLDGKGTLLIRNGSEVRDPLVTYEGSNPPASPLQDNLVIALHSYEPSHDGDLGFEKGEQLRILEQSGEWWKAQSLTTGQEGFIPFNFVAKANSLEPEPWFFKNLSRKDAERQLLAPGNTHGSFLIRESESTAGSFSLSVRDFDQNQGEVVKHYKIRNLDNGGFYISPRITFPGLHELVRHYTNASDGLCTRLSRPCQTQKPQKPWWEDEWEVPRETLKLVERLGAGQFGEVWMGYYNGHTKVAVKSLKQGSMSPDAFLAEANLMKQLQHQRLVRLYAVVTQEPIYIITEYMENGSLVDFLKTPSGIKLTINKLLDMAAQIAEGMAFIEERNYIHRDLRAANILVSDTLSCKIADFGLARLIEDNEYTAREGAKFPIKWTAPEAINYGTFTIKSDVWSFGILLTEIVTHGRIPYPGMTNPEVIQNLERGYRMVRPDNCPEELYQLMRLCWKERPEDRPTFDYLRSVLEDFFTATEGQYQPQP

For the compound `Nc1nccc2c1c(-c1ccc(Oc3ccccc3)cc1)cn2C1CCCC1` [Compound I-1, 1-Cyclopentyl-3-(4-phenoxyphenyl)-1H-pyrrolo[3,2-c]pyridin-4-amine], the Ki at human Src kinase and at human Lck kinase was less than 1000 nM in each case.
